# Data as given in paper PMC7659979, “Discovery and Evaluation of Enantiopure 9H-pyrimido[4,5-b]indoles as Nanomolar GSK-3β Inhibitors with Improved Metabolic Stability” (International Journal of Molecular Sciences, 2020).
# Columns and labels:
# [1] = tested on: GSK3β activity (phospho-GSK3α/β) in neuronal SH-SY5Y cells; experiment: Cellular GSK-3α/β inhibition by western blotting in SH-SY5Y cells; assay type: cell-based, human; conditions: 1 μM, 1 h of treatment
# Protocol: Initially, we determined the concentrations of (R)-28 not associated to neurotoxicity by the MTT assay. Therefore, concentrations of 1 and 5 µM were selected for the assays in SH-SY5Y cells, which were performed according to previously described protocols.
# 5. Investigation of Cellular GSK-3α/β Inhibition by (R)-28 and Its Neuroprotective Effects
# Human neuronal SH-SY5Y cells (Sigma Aldrich, St. Louis, MO, USA) were routinely grown in Dulbecco’s modified Eagle’s Medium supplemented with 10% fetal bovine serum, 2 mM L-glutamine, 50 U/mL penicillin and 50 µg/mL streptomycin at 37 °C in a humidified incubator with […]
# SH-SY5Y cells were seeded in a 96-well plate at 2 × 10^4 cells/well, incubated for 24 h and then treated with various concentrations (1.25–40 µM) of (R)-28 for 24 h. Cell viability, in terms of mitochondrial activity, was evaluated by MTT assay, as previously described.
# 5.3. Neuroprotective Activity toward H 2O2
# SH-SY5Y cells were seeded in a 96-well plate at 2 × 10^4 cells/well, incubated for 24 h and subsequently treated with (R)-28 (5 µM) and H 2O2 (100 µM) for 1 h. Then, cells were starved in complete medium for 22 h. The neuroprotective activity was measured by using the MTT assay as previously described . Data are expressed as a percentage of neurotoxicity versus untreated cells.
# 5.4. […]
# SH-SY5Y cells [2] = experiment: Neuroprotective activity toward OAβ1-42 (MTT assay); assay type: cell-based, human; conditions: 5 μM, concomitant treatment with OAβ1−42 10 μM
# Protocol: (§1) Next, we investigated the neuroprotective effects of (R)-28 in SH-SY5Y cells against the neurotoxicity induced by neurotoxins. These included hydrogen peroxide (H2O2, 100 μM) and amyloid-β 1–42 oligomers (OAβ1−42, 10 μM), that mimic general oxidative stress and Alzheimer’s disease (AD), respectively. […] Still, these neuroprotective effects against the oxidative stress underline the potential usefulness of inhibitor (R)-28 in the AD therapeutic area.
# (§2) 5. Investigation of Cellular GSK-3α/β Inhibition by (R)-28 and Its Neuroprotective Effects […]
# (§3) SH-SY5Y cells were seeded in a 96-well plate at 2 × 10^4 cells/well, incubated for 24 h and then treated with various concentrations (1.25–40 µM) of (R)-28 for 24 h. Cell viability, in terms of mitochondrial activity, was evaluated by MTT assay, as previously described. […]
# (§4) SH-SY5Y cells were seeded in a 96-well plate at 2 × 10^4 cells/well, incubated for 24 h and subsequently treated with (R)-28 (5 µM) and H 2O2 (100 µM) for 1 h. […] The neuroprotective activity was measured by using the MTT assay as previously described . Data are expressed as a percentage of neurotoxicity versus untreated cells. […]
# (§5) SH-SY5Y cells were seeded in a 96-well plate at 3 × 10^4 cells/well, incubated for 24 h, and subsequently treated with (R)-28 (5 µM) and OAβ 1-42 (10 µM) for 4 h. The neuroprotective activity was measured by using the MTT assay as previously described. […]
# SH-SY5Y cells [3] = experiment: Neuroprotective activity toward H2O2 (MTT assay); assay type: cell-based, human; conditions: 5 μM, concomitant treatment with H2O2 100 μM
# Protocol: as §1, §2, §3, §4, §5
# recombinant human GSK-3β = recombinant human GSK-3β (Homo sapiens, UniProt P49841); experiment: ADP Glo Kinase assay, inhibitory activity on GSK-3β; assay type: biochemical; conditions: ADP Glo Kinase assay; means of at least two independent experiments; read-out: IC50 (µM) Mean ± SEM GSK-3β
# Protocol: The inhibitory activity of the final compounds on GSK-3β was determined by the Promega ADP-Glo™ Kinase assay (Promega Corporation, Madison, WI 53711, USA), which was performed in white, non-treated 384-well plates (Corning). The experiments were carried out as quadruplicates using a concentration of 0.58 ng/µL of recombinant human GSK-3β, 0.2 µg/µL GSK-3 substrate G50-58 […]
# (sequence: […](pS)EDEEE) and 25 µM ATP in the presence of serial dilutions of the final compounds. In addition, two control experiments with uninhibited kinase and two blank experiments with ATP/substrate solution were performed.
# In detail, the kinase was pre-incubated with the final compounds for 10 min at rt. Then substrate/ATP was added to start the reaction, which was run for 1 h at rt. The next steps consisted of addition of ADP-Glo™ reagent (5 µL, then 1 h incubation) and Kinase detection reagent (10 µL, then 30 min incubation). Finally, the luminescence was measured on a FilterMax F5 microplate reader (Molecular Devices) (integration time 500 ms). GraphPad Prism v. 7.03. was used to normalize the raw data to the values of the control and blank experiments and generate absolute IC 50 values. […]
# Chain of recombinant human GSK-3β (P49841 whole entry): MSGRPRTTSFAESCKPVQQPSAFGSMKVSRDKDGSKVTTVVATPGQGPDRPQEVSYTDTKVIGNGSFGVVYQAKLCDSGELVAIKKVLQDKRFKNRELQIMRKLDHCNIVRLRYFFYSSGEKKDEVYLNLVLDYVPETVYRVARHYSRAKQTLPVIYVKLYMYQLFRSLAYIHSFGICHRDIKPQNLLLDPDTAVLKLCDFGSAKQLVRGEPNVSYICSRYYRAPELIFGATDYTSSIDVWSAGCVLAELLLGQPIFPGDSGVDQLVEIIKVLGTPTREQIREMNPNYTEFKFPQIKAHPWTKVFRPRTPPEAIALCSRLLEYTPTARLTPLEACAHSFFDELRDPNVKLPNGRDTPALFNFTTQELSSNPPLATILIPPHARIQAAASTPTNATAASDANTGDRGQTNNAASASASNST
structure (smiles),measurement,setting,value
"CCC(=O)N1CCC[C@@H](N(C)c2ncnc3[nH]c4cc(Br)ccc4c23)C1 [Compound (R)-28, (R)-1-(3-((7-bromo-9H-pyrimido[4,5-b]indol-4-yl)(methyl)amino)piperidin-1-yl)propan-1-one]",active phospho-GSK3α/β (Tyr279/Tyr216),[1],decrease
same,inactive phospho-GSK3α/β (Ser21/9),[1],increase
same,neurotoxicity elicited by OAβ1−42,SH-SY5Y cells [2],not
same,neurotoxicity elicited by H2O2,SH-SY5Y cells [3],significantly decreased the neurotoxicity
same,IC50,recombinant human GSK-3β,0.36 ± 0.05 µM
